Reference: PubChem BioAssay AID1259407 (Chemical Carcinogenesis Research Information System (CCRIS), 2018)
Calls of active or inactive are those of the source. How the calls were made is not given here.

Test system: CCRIS mutagenicity, Ames/micronucleus/aberration tests
Experiment: CCRIS mutagenicity studies
[1] = Test System: AMES SALMONELLA TYPHIMURIUM, Strain/Indicator: TA98, Metabolic Activation: NONE, Method: STANDARD PLATE
[2] = Test System: AMES SALMONELLA TYPHIMURIUM, Strain/Indicator: TA98, Metabolic Activation: RAT, LIVER, S-9, AROCLOR 1254, Method: STANDARD PLATE
[3] = Test System: AMES SALMONELLA TYPHIMURIUM, Strain/Indicator: TA1538, Metabolic Activation: NONE, Method: STANDARD PLATE
[4] = Test System: AMES SALMONELLA TYPHIMURIUM, Strain/Indicator: TA1538, Metabolic Activation: RAT, LIVER, S-9, AROCLOR 1254, Method: STANDARD PLATE

CC(=O)N(O)c1ccc2c(c1)Cc1ccccc1-2
mutagenic call (Test System: AMES SALMONELLA TYPHIMURIUM, Strain/Indicator: TA98, Metabolic Activation: GUINEA PIG, LIVER, HEPATOCYTES): active; positive | mutagenic call (Test System: AMES SALMONELLA TYPHIMURIUM, Strain/Indicator: TA98, Metabolic Activation: GUINEA PIG, LIVER, S-9, Method: STANDARD PLATE): active; positive | mutagenic call (Test System: AMES SALMONELLA TYPHIMURIUM, Strain/Indicator: TA98, Metabolic Activation: HAMSTER, LIVER, HEPATOCYTES): active; positive | mutagenic call (Test System: AMES SALMONELLA TYPHIMURIUM, Strain/Indicator: TA98, Metabolic Activation: HAMSTER, LIVER, S-9, Method: STANDARD PLATE): active; positive | mutagenic call (Test System: AMES SALMONELLA TYPHIMURIUM, Strain/Indicator: TA98, Metabolic Activation: HUMAN, FETAL LIVER, S-9): active; positive | mutagenic call (Test System: AMES SALMONELLA TYPHIMURIUM, Strain/Indicator: TA98, Metabolic Activation: MOUSE, LIVER, HEPATOCYTES): active; positive | mutagenic call (Test System: AMES SALMONELLA TYPHIMURIUM, Strain/Indicator: TA98, Metabolic Activation: MOUSE, LIVER, S-9, Method: STANDARD PLATE): active; positive | mutagenic call [1]: active; positive | mutagenic call (Test System: AMES SALMONELLA TYPHIMURIUM, Strain/Indicator: TA98, Metabolic Activation: RABBIT, LIVER, MICROSOMAL FRACTION, Method: STANDARD PLATE): active; positive | mutagenic call (Test System: AMES SALMONELLA TYPHIMURIUM, Strain/Indicator: TA98, Metabolic Activation: RABBIT, LUNG, MICROSOMAL FRACTION, Method: STANDARD PLATE): active; positive | mutagenic call (Test System: AMES SALMONELLA TYPHIMURIUM, Strain/Indicator: TA98, Metabolic Activation: RAT, LIVER, HEPATOCYTES): active; positive | mutagenic call [2]: active; positive | mutagenic call (Test System: AMES SALMONELLA TYPHIMURIUM, Strain/Indicator: TA98, Metabolic Activation: RAT, LIVER, S-9, Method: STANDARD PLATE): active; positive | mutagenic call (Test System: AMES SALMONELLA TYPHIMURIUM, Strain/Indicator: TA98, Metabolic Activation: V-79 CELL HOMOGENATE, Method: PREINCUBATION): active; positive | mutagenic call [3]: active; positive | mutagenic call [4]: active; positive | mutagenic call (Test System: AMES SALMONELLA TYPHIMURIUM, Strain/Indicator: TA1538, Metabolic Activation: RAT, LIVER, S-9, KC500 OR PHENOBARBITAL, Method: LIQUID SUSPENSION): active; positive | mutagenic call (Test System: AMES SALMONELLA TYPHIMURIUM, Strain/Indicator: YG1012, Metabolic Activation: NONE, Method: PREINCUBATION): active; positive | mutagenic call (Test System: AMES SALMONELLA TYPHIMURIUM, Strain/Indicator: YG1019, Metabolic Activation: NONE, Method: PREINCUBATION): active; positive | mutagenic call (Test System: AMES SALMONELLA TYPHIMURIUM, Strain/Indicator: YG1020, Metabolic Activation: NONE, Method: PREINCUBATION): active; positive | mutagenic call (Test System: AMES SALMONELLA TYPHIMURIUM, Strain/Indicator: YG1024, Metabolic Activation: NONE, Method: PREINCUBATION): active; positive | mutagenic call (Test System: CHINESE HAMSTER V-79, Strain/Indicator: V-79/6-THIOGUANINE, Metabolic Activation: NONE): active; positive | mutagenic call (Test System: CHINESE HAMSTER V-79, Strain/Indicator: V-79/8-AZAGUANINE, Metabolic Activation: NONE, Method: STANDARD PLATE): active; positive | mutagenic call (Test System: E. COLI, Strain/Indicator: WP2 UVRA, Metabolic Activation: NONE, Method: STANDARD PLATE): inactive; negative | mutagenic call (Test System: UDS GUINEA PIG HEPATOCYTES, Strain/Indicator: THY INCORP, Metabolic Activation: NONE, Method: LIQUID SCINTILLATION COUNTING): active; positive | mutagenic call (Test System: UDS HAMSTER HEPATOCYTES, Strain/Indicator: THY INCORP, Metabolic Activation: NONE, Method: LIQUID SCINTILLATION COUNTING): active; positive | mutagenic call (Test System: UDS HUMAN CELLS, Strain/Indicator: THY INCORP (NON-S-PHASE), Metabolic Activation: RAT, LIVER, S-9, PHENOBARBITAL, Method: LIQUID SCINTILLATION COUNTING): active; positive | mutagenic call (Test System: UDS HUMAN FIBROBLASTS, Strain/Indicator: THY INCORP (NON-S-PHASE), Metabolic Activation: NONE, Method: AUTORADIOGRAPHY): active; positive | mutagenic call (Test System: UDS HUMAN FIBROBLASTS, Strain/Indicator: THY INCORP (NON-S-PHASE), Metabolic Activation: NONE, Method: LIQUID SCINTILLATION COUNTING): active; positive | mutagenic call (Test System: UDS HUMAN LYMPHOCYTES, Strain/Indicator: THY INCORP (NON-S-PHASE), Metabolic Activation: NONE, Method: LIQUID SCINTILLATION COUNTING): active; positive | mutagenic call (Test System: UDS MOUSE HEPATOCYTES, Strain/Indicator: THY INCORP, Metabolic Activation: NONE, Method: LIQUID SCINTILLATION COUNTING): active; positive | mutagenic call (Test System: UDS RAT HEPATOCYTES, Strain/Indicator: THY INCORP, Metabolic Activation: NONE, Method: LIQUID SCINTILLATION COUNTING): active; positive | mutagenic call (Test System: UDS RODENT HEPATOCYTES, Strain/Indicator: THY INCORP (NON-S-PHASE), Method: AUTORADIOGRAPHY): active; positive | mutagenic call (Test System: UDS RODENT HEPATOCYTES, Strain/Indicator: THY INCORP (NON-S-PHASE), Method: LIQUID SCINTILLATION COUNTING): active; positive

CCOC(=O)Nc1cccc(OC(=O)Nc2ccccc2)c1
mutagenic call (Test System: Ames Salmonella typhimurium, Strain/Indicator: TA98, Metabolic Activation: None): inactive; negative | mutagenic call (Test System: Ames Salmonella typhimurium, Strain/Indicator: TA98, Metabolic Activation: Rat, Liver, S-9): inactive; negative | mutagenic call (Test System: Ames Salmonella typhimurium, Strain/Indicator: TA100, Metabolic Activation: None): inactive; negative | mutagenic call (Test System: Ames Salmonella typhimurium, Strain/Indicator: TA100, Metabolic Activation: Rat, Liver, S-9): inactive; negative | mutagenic call (Test System: Ames Salmonella typhimurium, Strain/Indicator: TA1535, Metabolic Activation: None): inactive; negative | mutagenic call (Test System: Ames Salmonella typhimurium, Strain/Indicator: TA1535, Metabolic Activation: Rat, Liver, S-9): inactive; negative | mutagenic call (Test System: Ames Salmonella typhimurium, Strain/Indicator: TA1537, Metabolic Activation: None): inactive; negative | mutagenic call (Test System: Ames Salmonella typhimurium, Strain/Indicator: TA1537, Metabolic Activation: Rat, Liver, S-9): inactive; negative | mutagenic call (Test System: E. coli, Strain/Indicator: WP2, Metabolic Activation: None, Method: Not reported by DPR): inactive; negative | mutagenic call (Test System: E. coli, Strain/Indicator: WP2, Metabolic Activation: Rat, Liver, S-9, Method: Not reported by DPR): inactive; negative

c1ccc(-c2ccc(-c3ccccc3)cc2)cc1
mutagenic call (Test System: AMES SALMONELLA TYPHIMURIUM, Strain/Indicator: TA98, Metabolic Activation: HAMSTER, LIVER, S-9, AROCLOR 1254, Method: STANDARD PLATE): inactive; negative | mutagenic call [1]: inactive; negative | mutagenic call [2]: inactive; negative | mutagenic call (Test System: AMES SALMONELLA TYPHIMURIUM, Strain/Indicator: TA100, Metabolic Activation: HAMSTER, LIVER, S-9, AROCLOR 1254, Method: STANDARD PLATE): inactive; negative | mutagenic call (Test System: AMES SALMONELLA TYPHIMURIUM, Strain/Indicator: TA100, Metabolic Activation: NONE, Method: STANDARD PLATE): inactive; negative | mutagenic call (Test System: AMES SALMONELLA TYPHIMURIUM, Strain/Indicator: TA100, Metabolic Activation: RAT, LIVER, S-9, AROCLOR 1254, Method: STANDARD PLATE): inactive; negative | mutagenic call (Test System: AMES SALMONELLA TYPHIMURIUM, Strain/Indicator: TA1535, Metabolic Activation: HAMSTER, LIVER, S-9, AROCLOR 1254, Method: STANDARD PLATE): inactive; negative | mutagenic call (Test System: AMES SALMONELLA TYPHIMURIUM, Strain/Indicator: TA1535, Metabolic Activation: NONE, Method: STANDARD PLATE): inactive; negative | mutagenic call (Test System: AMES SALMONELLA TYPHIMURIUM, Strain/Indicator: TA1535, Metabolic Activation: RAT, LIVER, S-9, AROCLOR 1254, Method: STANDARD PLATE): inactive; negative | mutagenic call (Test System: AMES SALMONELLA TYPHIMURIUM, Strain/Indicator: TA1537, Metabolic Activation: HAMSTER, LIVER, S-9, AROCLOR 1254, Method: STANDARD PLATE): inactive; negative | mutagenic call (Test System: AMES SALMONELLA TYPHIMURIUM, Strain/Indicator: TA1537, Metabolic Activation: NONE, Method: STANDARD PLATE): inactive; negative | mutagenic call (Test System: AMES SALMONELLA TYPHIMURIUM, Strain/Indicator: TA1537, Metabolic Activation: RAT, LIVER, S-9, AROCLOR 1254, Method: STANDARD PLATE): inactive; negative | mutagenic call (Test System: AMES SALMONELLA TYPHIMURIUM, Strain/Indicator: TA1538, Metabolic Activation: HAMSTER, LIVER, S-9, AROCLOR 1254, Method: STANDARD PLATE): inactive; negative | mutagenic call [3]: inactive; negative | mutagenic call [4]: inactive; negative | mutagenic call (Test System: MOUSE LYMPHOMA, Strain/Indicator: L5178Y (TK+/TK-), Metabolic Activation: NONE, Method: SUSPENSION/PLATE): inactive; negative. reevaluation of results: negative | mutagenic call (Test System: MOUSE LYMPHOMA, Strain/Indicator: L5178Y (TK+/TK-), Metabolic Activation: RAT, LIVER, S-9, AROCLOR 1254, Method: SUSPENSION/PLATE): active; positive. reevaluation of results: equivocal
